As usually defined, the IC50 is the midpoint of a concentration-inhibition curve.

One assay concerns the target InsR (Homo sapiens, UniProt P06213). The experiment in a line: Enzymatic kinase assay (filter-binding/flashplate). The class given is biochemical. To be noted: enzymatic; read-out: InsR IC50 values. The method, then: (§1) Two methods were used to analyze phosphorylated peptides and proteins produced by the listed tyrosine and serine/threonine-specific protein kinases: either using a filter-binding assay (FB), or using a flashplate assay (FP). The activities of protein kinases were assayed in the presence or absence of inhibitors, by measuring the incorporation of ^33P from [γ^33P]ATP into appropriate substrates.
(§2) 96-well polypropylene microplates were used to assay the activity in the FB mode. To determine the inhibitory activity of compounds 10 μL of compound dilutions were pipetted into 96-well plates followed by the addition of 10 μL of assay mix and 10 μL of individual enzymes. With the addition of the enzymes the reactions were initiated and continued at RT. […] The final concentration of DMSO in the enzyme assays was 1%.
(§3) Flashplates are available as 96-well standard (STFPs) or as streptavidin-(SAFPs) or nickel coated FPs (NiFPs) from Perkin Elmer. STFPs are 96-well polystyrene microplates in which the interior of each well is permanently coated with a thin layer of polystyrene-based scintillant. Streptavidin flashplates (SAFP) are 96 or 384-well STFPs coated with streptavidin. SAFPs are suitable for a wide variety of assay applications which utilize biotinylated capture molecules. NiFP or nickel chelate flashplates are 96- or 384-well STFPs coated with nickel chelate. NiFPs are designed for in-plate, radiometric assays which utilize 4- or 6-histidine tagged proteins and peptides.
(§4) All kinase assays were performed in STFPs for 60 mins at RT and stopped with 50 μL of 0.5% H3PO4 except PKA which were carried out in polypropylene 96- and 384-well plates, respectively. […] All wells were then washed three times with 200 μL of 0.5% H3PO4 and the plates were dried at room temperature. The plates were sealed and counted in a microplate scintillation counter (TopCount NXT, TopCount NXT HTS). The final concentration of DMSO in the enzyme assays was 1%.

In assay [1] the target is T1, IGF1R (Homo sapiens, UniProt P08069). The experiment in a line: Enzymatic kinase assay (filter-binding/flashplate). The class given is biochemical. As for the experimental part:
as §1, §2, §3, §4

In a further assay the target is P38a (Homo sapiens, UniProt Q16539). In words: Enzymatic kinase assay. The class given is biochemical. As for the experimental part:
as §1, §2, §3, §4

In the next assay the target is JAK2 (Homo sapiens, UniProt O60674). The experiment in a line: Enzymatic kinase assay. The class given is biochemical. As for the experimental part:
as §1, §2, §3, §4

The next assay addresses CDK2A (Homo sapiens, UniProt P24941). In words: Enzymatic kinase assay. The class given is biochemical. The method, then: as §1, §2, §3, §4
In a further assay the target is KDR (Homo sapiens, UniProt P35968). The experiment in a line: Enzymatic kinase assay. The class given is biochemical. The method, then:
as §1, §2, §3, §4

The target of a further assay is TYK2 (Homo sapiens, UniProt P29597). In words: Enzymatic kinase assay. Format: biochemical. As for the experimental part:
as §1, §2, §3, §4

The target of another assay is HER2 (Homo sapiens, UniProt P04626). In words: Enzymatic kinase assay. Format: biochemical. As for the experimental part: as §1, §2, §3, §4
Sequence of HER2 (P04626 23-1255, species assumed): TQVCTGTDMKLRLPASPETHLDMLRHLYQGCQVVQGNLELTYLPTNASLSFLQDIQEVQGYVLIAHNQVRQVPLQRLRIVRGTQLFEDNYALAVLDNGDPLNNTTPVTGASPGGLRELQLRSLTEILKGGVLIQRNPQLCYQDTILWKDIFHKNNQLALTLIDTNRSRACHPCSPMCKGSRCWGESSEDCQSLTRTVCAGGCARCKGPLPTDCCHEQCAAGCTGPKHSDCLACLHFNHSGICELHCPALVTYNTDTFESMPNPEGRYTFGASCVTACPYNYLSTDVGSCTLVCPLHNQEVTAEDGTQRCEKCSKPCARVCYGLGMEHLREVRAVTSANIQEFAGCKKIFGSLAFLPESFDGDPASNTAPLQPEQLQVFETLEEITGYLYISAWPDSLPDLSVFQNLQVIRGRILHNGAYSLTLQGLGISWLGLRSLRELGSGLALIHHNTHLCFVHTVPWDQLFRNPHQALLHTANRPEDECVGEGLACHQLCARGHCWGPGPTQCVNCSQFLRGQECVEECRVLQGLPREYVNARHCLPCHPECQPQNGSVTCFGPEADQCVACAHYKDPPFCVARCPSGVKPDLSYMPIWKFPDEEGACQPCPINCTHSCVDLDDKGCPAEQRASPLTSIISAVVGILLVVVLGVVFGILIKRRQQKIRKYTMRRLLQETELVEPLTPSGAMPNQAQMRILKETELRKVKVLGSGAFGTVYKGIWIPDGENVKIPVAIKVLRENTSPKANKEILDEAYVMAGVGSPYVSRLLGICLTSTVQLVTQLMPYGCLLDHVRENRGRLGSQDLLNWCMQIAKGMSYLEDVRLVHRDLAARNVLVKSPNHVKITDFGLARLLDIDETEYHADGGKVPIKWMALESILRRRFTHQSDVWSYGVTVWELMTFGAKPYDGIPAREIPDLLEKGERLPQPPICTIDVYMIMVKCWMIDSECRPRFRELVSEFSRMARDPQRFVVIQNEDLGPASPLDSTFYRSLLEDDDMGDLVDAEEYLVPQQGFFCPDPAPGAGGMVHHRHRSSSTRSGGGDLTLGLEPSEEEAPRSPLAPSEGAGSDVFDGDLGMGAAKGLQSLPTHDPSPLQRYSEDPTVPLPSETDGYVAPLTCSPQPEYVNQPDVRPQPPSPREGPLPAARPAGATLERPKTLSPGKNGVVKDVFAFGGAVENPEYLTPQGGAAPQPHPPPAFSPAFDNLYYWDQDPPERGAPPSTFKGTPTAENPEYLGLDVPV
A further assay has as its target ERK2 (Homo sapiens, UniProt P28482). In words: Enzymatic kinase assay. Format: biochemical. The method, then: as §1, §2, §3, §4
The next assay has as its target MK2 (Homo sapiens, UniProt P49137). In words: Enzymatic kinase assay. Format: biochemical. As for the experimental part:
as §1, §2, §3, §4

The next assay deals with LCK (Homo sapiens, UniProt P06239). In words: Enzymatic kinase assay. Format: biochemical. As for the experimental part:
as §1, §2, §3, §4

The target of the next assay is RET (Homo sapiens, UniProt P07949). The experiment in a line: Enzymatic kinase assay. Format: biochemical. To be noted: enzymatic; read-out: RET IC50 values (converted). The method, then: as §1, §2, §3, §4
The target of the next assay is cMET (Homo sapiens, UniProt P08581). In words: Enzymatic kinase assay. Format: biochemical. The method, then:
as §1, §2, §3, §4

The target in a further assay is cABLT315 (Homo sapiens, UniProt P00519, T315I). The experiment in a line: Enzymatic kinase assay. The class given is biochemical. The method, then: as §1, §2, §3, §4
The target of another assay is cKIT (Homo sapiens, UniProt P10721). In words: Enzymatic kinase assay. The class given is biochemical. The method, then:
as §1, §2, §3, §4

Another assay has as its target FGFR-4 (Homo sapiens, UniProt P22455). In words: Enzymatic kinase assay. Format: biochemical. The method, then:
as §1, §2, §3, §4

A further assay addresses PDGFRa (Homo sapiens, UniProt P16234). In words: Enzymatic kinase assay. The class given is biochemical. As for the experimental part:
as §1, §2, §3, §4

Another assay addresses EphA4 (Homo sapiens, UniProt P54764). In words: Enzymatic kinase assay. Format: biochemical. As for the experimental part: as §1, §2, §3, §4
In the next assay the target is T2, Aurora A (Homo sapiens, UniProt O14965).
T2 sequence (O14965 1-403): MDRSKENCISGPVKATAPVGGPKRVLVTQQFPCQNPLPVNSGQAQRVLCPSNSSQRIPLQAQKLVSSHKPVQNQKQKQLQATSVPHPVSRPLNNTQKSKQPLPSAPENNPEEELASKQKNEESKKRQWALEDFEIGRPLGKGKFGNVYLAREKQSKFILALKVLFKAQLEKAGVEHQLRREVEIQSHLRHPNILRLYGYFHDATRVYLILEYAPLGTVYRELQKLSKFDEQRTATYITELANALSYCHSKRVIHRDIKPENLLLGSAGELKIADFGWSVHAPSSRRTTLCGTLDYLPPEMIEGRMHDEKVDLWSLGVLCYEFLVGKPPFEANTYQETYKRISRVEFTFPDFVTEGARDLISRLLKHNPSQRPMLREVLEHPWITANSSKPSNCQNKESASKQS
The experiment in a line: Enzymatic kinase assay. Format: biochemical. The method, then:
as §1, §2, §3, §4

Another assay has as its target GSK3beta (Homo sapiens, UniProt P49841). The experiment in a line: Enzymatic kinase assay. Format: biochemical. As for the experimental part:
as §1, §2, §3, §4

In the next assay the target is COT1 (Homo sapiens, UniProt P41279). In words: Enzymatic kinase assay. The class given is biochemical. The method, then:
as §1, §2, §3, §4

The target in assay [2] is T1, IGF1R. In words: Cellular IGF-1R assay: inhibition of IGF1R phosphorylation in Hek293 cells, capture ELISA (MSD). The class given is cell-based. More on the design: expressed in transfected cells; host or cells: Hek293 (Hek293-IGF1R). Conditions: IGF-triggered receptor phosphorylation. The method, then: IVa. Cellular IGF-1R and InsR Assays
Compound-mediated inhibition of IGF1R and INSR phosphorylation in Hek293 cells transduced with the corresponding receptors is assessed in a capture ELISA format using the MSD (Meso Scale Discovery) platform. Briefly, 30′000 cells washed and diluted in starvation medium (DMEM high glucose supplemented with 0.1% BSA) are seeded in 90 μL per well into 96-well plates pre-coated with poly-D-lysine (0.1 mg/mL in PBS/O). After 24 h incubation at 37° C. and 5% CO2, dose-response effects are determined with 3-fold serial compound dilutions, starting at 10 μM. The final vehicle concentration is 0.1% DMSO in all wells. Following pre-incubation with compounds for 1 h, receptor phosphorylation is triggered by a 10 min exposure to 1.0 ng/μL IGF for Hek293-IGF1R cells, and 5.0 ng/μL insulin for Hek293-InsR cells. Cell lysis is achieved by addition of 80 μL MSD lysis buffer per aspirated well, incubation on ice for 20 min, and a freeze-thaw cycle. Target phosphorylation is then assessed by transferring volumes corresponding to approx. 6 μg Hek293-IGF1R or 0.6 μg Hek293-InsR lysates to MSD assay plates pre-coated with total-IGF1R or total-InsR Abs, respectively. […] Immune complexes are detected by a SULFO-Tag™-coupled anti-rabbit IgG antibody in the presence of 150 μL MSD read-buffer. Light emission at 620 nm triggered by application of electric current is recorded on a MSD Sectorlmager 6000. Acquired raw data (mean Ru-ECL units) are processed in an Excel analysis template. The plate blank (MSD lysis buffer) is subtracted from all data points. The effect of a particular test compound concentration on receptor phosphorylation is expressed relative to the window defined by ligand-stimulated vs unstimulated control cells (set as 100%). IC50 values [nM] are determined using 4-parametric curve-fitting (XLfit software, V4.3.2).
(In general: In an ELISA, binding on a coated surface is turned into a signal by an enzyme label.)

The target of the next assay is hERG channels (Homo sapiens, UniProt Q12809). In words: biochemical.

Molecules are shown by their SMILES. Bounds are passed on as bounds.

Sequence of TYK2 (P29597 whole entry, species assumed): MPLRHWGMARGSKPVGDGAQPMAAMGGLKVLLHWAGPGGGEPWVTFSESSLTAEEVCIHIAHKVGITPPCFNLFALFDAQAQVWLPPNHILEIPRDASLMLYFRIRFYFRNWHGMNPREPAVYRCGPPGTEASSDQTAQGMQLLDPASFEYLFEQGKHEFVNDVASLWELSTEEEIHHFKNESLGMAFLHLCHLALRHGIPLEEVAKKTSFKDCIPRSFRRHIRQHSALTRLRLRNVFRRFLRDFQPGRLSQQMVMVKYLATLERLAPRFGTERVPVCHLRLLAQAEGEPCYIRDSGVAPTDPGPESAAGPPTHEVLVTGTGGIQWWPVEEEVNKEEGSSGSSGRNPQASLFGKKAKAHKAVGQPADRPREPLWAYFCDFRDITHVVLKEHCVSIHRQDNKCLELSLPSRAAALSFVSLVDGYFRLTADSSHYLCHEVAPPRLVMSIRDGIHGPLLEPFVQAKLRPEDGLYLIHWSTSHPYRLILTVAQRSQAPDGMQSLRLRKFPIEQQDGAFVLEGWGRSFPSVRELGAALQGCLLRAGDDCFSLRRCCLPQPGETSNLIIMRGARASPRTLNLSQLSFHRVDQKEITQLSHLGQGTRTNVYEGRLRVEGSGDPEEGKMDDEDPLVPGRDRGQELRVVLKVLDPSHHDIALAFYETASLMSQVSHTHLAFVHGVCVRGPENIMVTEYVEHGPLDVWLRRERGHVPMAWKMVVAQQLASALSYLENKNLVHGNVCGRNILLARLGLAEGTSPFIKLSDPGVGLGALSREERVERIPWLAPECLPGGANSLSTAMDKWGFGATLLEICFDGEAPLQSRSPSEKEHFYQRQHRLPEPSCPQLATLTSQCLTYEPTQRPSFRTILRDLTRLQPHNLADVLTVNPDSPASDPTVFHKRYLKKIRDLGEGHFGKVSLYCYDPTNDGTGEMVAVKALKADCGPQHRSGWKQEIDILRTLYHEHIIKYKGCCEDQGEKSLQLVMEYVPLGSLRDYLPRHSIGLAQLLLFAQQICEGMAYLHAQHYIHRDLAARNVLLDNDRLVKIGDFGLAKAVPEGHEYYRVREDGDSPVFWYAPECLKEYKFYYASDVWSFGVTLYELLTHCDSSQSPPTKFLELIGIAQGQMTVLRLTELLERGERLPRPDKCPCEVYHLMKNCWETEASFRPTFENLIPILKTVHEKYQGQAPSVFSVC
Sequence of LCK (P06239 whole entry, species assumed): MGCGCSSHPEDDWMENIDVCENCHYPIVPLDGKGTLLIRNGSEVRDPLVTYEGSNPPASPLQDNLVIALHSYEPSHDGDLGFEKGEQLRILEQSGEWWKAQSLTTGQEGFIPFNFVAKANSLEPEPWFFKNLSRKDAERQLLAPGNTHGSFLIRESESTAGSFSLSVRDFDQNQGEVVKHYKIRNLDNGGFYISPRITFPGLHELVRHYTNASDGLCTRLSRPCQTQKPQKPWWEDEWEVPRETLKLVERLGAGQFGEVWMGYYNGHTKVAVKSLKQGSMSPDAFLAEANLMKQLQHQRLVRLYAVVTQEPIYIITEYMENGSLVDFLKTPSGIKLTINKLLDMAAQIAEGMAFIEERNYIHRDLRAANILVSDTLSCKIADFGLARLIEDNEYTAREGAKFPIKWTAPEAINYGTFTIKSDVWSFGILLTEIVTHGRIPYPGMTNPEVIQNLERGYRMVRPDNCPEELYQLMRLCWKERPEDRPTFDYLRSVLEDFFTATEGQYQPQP
Sequence of FGFR-4 (P22455 22-802, species assumed): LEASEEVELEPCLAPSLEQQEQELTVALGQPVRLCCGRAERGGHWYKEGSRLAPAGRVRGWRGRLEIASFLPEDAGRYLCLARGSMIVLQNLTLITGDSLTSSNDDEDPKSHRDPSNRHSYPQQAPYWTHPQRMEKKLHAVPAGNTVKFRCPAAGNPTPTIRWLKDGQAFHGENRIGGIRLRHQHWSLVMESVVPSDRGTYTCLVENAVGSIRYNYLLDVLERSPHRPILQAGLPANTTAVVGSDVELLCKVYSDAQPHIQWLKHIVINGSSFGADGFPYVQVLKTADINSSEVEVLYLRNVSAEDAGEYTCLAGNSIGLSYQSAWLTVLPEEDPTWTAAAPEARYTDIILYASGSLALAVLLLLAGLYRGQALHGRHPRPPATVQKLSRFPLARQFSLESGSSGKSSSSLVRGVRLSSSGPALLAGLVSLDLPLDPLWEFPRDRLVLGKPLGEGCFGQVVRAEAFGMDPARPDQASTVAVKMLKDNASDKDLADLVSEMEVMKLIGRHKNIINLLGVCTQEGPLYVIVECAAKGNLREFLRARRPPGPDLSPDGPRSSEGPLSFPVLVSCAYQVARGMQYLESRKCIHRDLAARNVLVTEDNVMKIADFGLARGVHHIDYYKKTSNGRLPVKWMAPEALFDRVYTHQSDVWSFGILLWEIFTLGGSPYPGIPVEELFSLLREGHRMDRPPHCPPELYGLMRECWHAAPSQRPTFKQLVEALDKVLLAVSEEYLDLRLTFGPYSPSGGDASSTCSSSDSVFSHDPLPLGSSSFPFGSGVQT
Sequence of MK2 (P49137 whole entry, species assumed): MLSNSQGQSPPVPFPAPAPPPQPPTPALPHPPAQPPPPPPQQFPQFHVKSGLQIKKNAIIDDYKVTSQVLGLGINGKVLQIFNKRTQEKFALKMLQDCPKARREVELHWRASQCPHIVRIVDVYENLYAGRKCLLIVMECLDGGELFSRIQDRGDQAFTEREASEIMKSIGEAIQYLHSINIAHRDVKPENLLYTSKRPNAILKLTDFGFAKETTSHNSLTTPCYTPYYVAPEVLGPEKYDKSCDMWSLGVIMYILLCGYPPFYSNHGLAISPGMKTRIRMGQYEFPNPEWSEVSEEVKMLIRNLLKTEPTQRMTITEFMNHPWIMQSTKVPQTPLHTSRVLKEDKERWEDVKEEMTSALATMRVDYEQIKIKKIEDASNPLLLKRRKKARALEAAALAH
Sequence of P38a (Q16539 whole entry): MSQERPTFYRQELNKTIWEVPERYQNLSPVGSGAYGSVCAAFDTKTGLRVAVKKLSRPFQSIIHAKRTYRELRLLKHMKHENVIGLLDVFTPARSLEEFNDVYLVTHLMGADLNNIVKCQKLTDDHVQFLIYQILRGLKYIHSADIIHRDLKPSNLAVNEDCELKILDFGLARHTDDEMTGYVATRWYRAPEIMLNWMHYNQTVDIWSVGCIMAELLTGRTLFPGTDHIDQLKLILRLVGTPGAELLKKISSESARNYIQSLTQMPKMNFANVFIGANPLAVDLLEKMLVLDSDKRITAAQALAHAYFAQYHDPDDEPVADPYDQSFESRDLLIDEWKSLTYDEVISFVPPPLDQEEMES
Sequence of COT1 (P41279 whole entry): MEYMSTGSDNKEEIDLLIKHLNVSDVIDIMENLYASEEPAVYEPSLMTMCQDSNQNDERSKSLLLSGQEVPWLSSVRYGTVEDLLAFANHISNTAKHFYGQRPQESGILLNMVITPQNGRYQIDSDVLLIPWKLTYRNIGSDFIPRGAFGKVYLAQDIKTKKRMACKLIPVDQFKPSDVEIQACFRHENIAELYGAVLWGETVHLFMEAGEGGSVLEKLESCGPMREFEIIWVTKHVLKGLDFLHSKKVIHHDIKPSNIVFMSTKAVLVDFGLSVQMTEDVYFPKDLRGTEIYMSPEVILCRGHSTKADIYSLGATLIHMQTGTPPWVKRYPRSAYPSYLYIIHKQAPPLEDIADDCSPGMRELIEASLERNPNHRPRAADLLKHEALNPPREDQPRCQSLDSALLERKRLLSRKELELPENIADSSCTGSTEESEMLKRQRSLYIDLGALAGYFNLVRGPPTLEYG

With `Nc1ncnc2c1c(-c1cccc(OC[C@@H]3CCCO3)c1F)cn2C1CC2(CNC(=O)O2)C1` (stereo partly drawn) [Example 4, 2-(4-Amino-5-{2-fluoro-3-[(S)-1-(tetrahydro-furan-2-yl)methoxy]-phenyl}-pyrrolo[2,3-d]pyrimidin-7-yl)-5-oxa-7-aza-spiro[3.4]octan-6-one], the half-inhibitory concentration (IC50) on InsR is 0.25 µM; on IGF1R [1], 0.013 µM; against P38a it was over 10 µM; at JAK2, over 10 µM; on CDK2A it was over 10 µM; against KDR, 4.5 µM. In addition, the concentration for half-maximal inhibition (IC50) on TYK2, at HER2, against ERK2, against MK2, against LCK and on RET was over 10 µM throughout. Also, the IC50 against cMET, at cABLT315, on cKIT, on FGFR-4, against PDGFRa and on EphA4 was over 10 µM throughout. Also, the IC50 is over 10 µM on Aurora A; over 10 µM on GSK3beta; over 10 µM on COT1; 0.017 µM against IGF1R [2]; 8.7 µM at hERG channels.

Consider `[2H]C1([2H])C([2H])([2H])C2(COc3cccc(-c4cn([C@H]5C[C@](O)(CO)C5)c5ncnc(N)c45)c3F)OC1([2H])C([2H])([2H])C2([2H])[2H]` [Example 27, d9-(Z)-3-{4-Amino-5-[2-fluoro-3-(7-oxa-bicyclo[2.2.1]hept-1-ylmethoxy)-phenyl]-pyrrolo[2,3-d]pyrimidin-7-yl}-1-hydroxymethyl-cyclobutanol], for which the IC50 on InsR was 0.13 µM; on IGF1R [1], 0.022 µM; at P38a, over 10 µM; at JAK2, over 10 µM; against CDK2A, over 10 µM; against KDR, over 10 µM. In addition, the IC50 on TYK2 is over 10 µM; against HER2, over 10 µM; against ERK2, over 10 µM; at MK2 it was over 10 µM; at LCK, 6.6 µM; on RET it was over 10 µM. Moreover, the IC50 against cMET, on cABLT315, against cKIT, against FGFR-4, on PDGFRa and against EphA4 was over 10 µM throughout. Besides, the IC50 at Aurora A is over 10 µM; at GSK3beta, over 10 µM; against COT1, over 10 µM; on hERG channels it was over 30 µM.

On to `CC(=O)N1CCN([C@H]2C[C@H](n3cc(-c4cc(OC[C@@H]5CCCO5)ccc4F)c4c(N)ncnc43)C2)CC1` [Example 36, 1-{4-[trans-3-(4-Amino-5-{2-fluoro-5-[(S)-1-(tetrahydro-furan-2-yl)methoxy]-phenyl}-pyrrolo[2,3-d]pyrimidin-7-yl)-cyclobutyl]-piperazin-1-yl}-ethanone], for which the IC50 is 1.3 µM at InsR; 0.03 µM on IGF1R [1]; over 10 µM at P38a; over 10 µM against JAK2; over 10 µM on CDK2A; over 10 µM on KDR. Moreover, the IC50 at TYK2 is over 10 µM; against HER2, over 10 µM; against ERK2, over 10 µM; against MK2 it was over 10 µM; on LCK, 9.7 µM; on RET, 3.1 µM. Besides, the IC50 on cMET, on cABLT315, on cKIT, against FGFR-4, against PDGFRa and on EphA4 was over 10 µM throughout. The IC50 is over 10 µM against Aurora A, over 10 µM on GSK3beta, over 10 µM against COT1 and over 30 µM against hERG channels.

With `Nc1ncnc2c1c(-c1cc(OC[C@@H]3CCCO3)ccc1F)cn2[C@H]1C[C@@H](N2CCN(C(=O)CO)CC2)C1` [Example 40, 1-{4-[cis-3-(4-Amino-5-{2-fluoro-5-[(S)-1-(tetrahydro-furan-2-yl)methoxy]-phenyl}-pyrrolo[2,3-d]pyrimidin-7-yl)-cyclobutyl]-piperazin-1-yl}-2-hydroxy-ethanone], the IC50 is 0.27 µM on InsR; 0.0087 µM on IGF1R [1]; over 10 µM against P38a; over 10 µM against JAK2; over 10 µM on CDK2A; 9.2 µM against KDR. Also, the IC50 at TYK2, against HER2, against ERK2, on MK2, against LCK and at RET was over 10 µM in each case. The half-maximal inhibitory concentration (IC50) against cMET, against cABLT315, at cKIT, against FGFR-4, at PDGFRa and against EphA4 was over 10 µM throughout. In addition, the IC50 against Aurora A is over 10 µM; against GSK3beta, over 10 µM; at COT1, over 10 µM; against hERG channels, over 30 µM.

The record behind these values is patent publication US20130338152A1, “FLUOROPHENYL BICYCLIC HETEROARYL COMPOUNDS” (IRM LLC, priority 2011, published 2013).
